Laboratory results published in patent US7956039B2, “Use of amygdalin analogues for the treatment of psoriasis” (Universitat Politècnica De Catalunya, priority 2004, dated 2011).

Tests used:
[1] = system: Blood mononuclear cells; assay: Monocyte chemotaxis assay in modified Boyden chamber; format: cell-based, human; conditions: for −log[A] (concentration of maximum chemotactic index): concentration [A] at which the maximum chemotactic index occurs; for Chemotactic index (maximum value): ratio of migration distance towards attractant to distance towards buffer, tested 10^−12 to 10^−7 mol/L
Method: Activity of Compounds (I) in Monocyte Chemotaxis Assays
Blood mononuclear cells were isolated from heparinized blood of human volunteers by Ficoll sedimentation. Chemotaxis was measured in a modified Boyden chamber using a Millipore […] that divided the upper and lower compartments. Mononuclear cells (0.5×10^6) in Krebs-Ringer phosphate (KRP) buffer were placed into the upper wells. Compounds (I) were dissolved in DMSO at 10^−2 mol/L, diluted with KRP buffer containing 1 mg/mL of bovine serum albumin and tested in the bottom compartment at a final concentration ranging from 10^−12 to 10^−7 mol/L. For an accurate comparison, the results of the different analogues were expressed as chemotactic index, which is the ratio of the distance of migration towards tested attractant and the distance towards the buffer. Migration in the presence of buffer was only […] (mean±SEM). Maximum migration for CHO-Met-Leu-Phe-OH (FMLP) occurred at 10^−8 mol/L and was […] in these experiments (chemotactic index 1.94±0.03). CD4 receptor binding for the test analogues was confirmed by blocking their chemotactic effects using low concentrations (0.1-0.2 mg/mL) of OKT4, a specific monoclonal antibody for CD4 molecules. In this test, migration response was not influenced by OKT4.

[2] = system: monocytes; conditions: cited from earlier work

NC(=O)[C@H](O[C@@H]1O[C@H](CO[C@@H]2O[C@H](CO)[C@@H](O)[C@H](O)[C@H]2O)[C@@H](O)[C@H](O)[C@H]1O)c1ccccc1 [Compound (I-7)]
−log[A] (concentration of maximum chemotactic index) [1]: 7
Chemotactic index (maximum value) [1]: 0.84

OC[C@H]1O[C@@H](OC[C@H]2O[C@@H](OCc3ccccc3)[C@H](O)[C@@H](O)[C@@H]2O)[C@H](O)[C@@H](O)[C@@H]1O [Compound (I-2), benzyl 6-O-(β-D-glucopyranosyl)4-D-glycopyranoside]
−log[A] (concentration of maximum chemotactic index) [1]: 8
Chemotactic index (maximum value) [1]: 0.76

OC[C@H]1O[C@@H](OC[C@H]2O[C@@H](OCCc3ccccc3)[C@H](O)[C@@H](O)[C@@H]2O)[C@H](O)[C@@H](O)[C@@H]1O [Compound (I-17), 2-phenylethyl 6-O-(β-D-glucopyranosyl)-β-D-glucopyranoside]
−log[A] (concentration of maximum chemotactic index) [1]: 9
Chemotactic index (maximum value) [1]: 0.70

COc1ccc(CO[C@@H]2O[C@H](CO[C@@H]3O[C@H](CO)[C@@H](O)[C@H](O)[C@H]3O)[C@@H](O)[C@H](O)[C@H]2O)c(OC)c1 [Compound (I-11), 2.4-dimethoxybenzyl 6-O-(β-D-glucopyranosyl)-β-D-glucopyranoside]
−log[A] (concentration of maximum chemotactic index) [1]: 10
Chemotactic index (maximum value) [1]: 0.84

N#C[C@H](O[C@@H]1O[C@H](CO[C@@H]2O[C@H](CO)[C@@H](O)[C@H](O)[C@H]2O)[C@@H](O)[C@H](O)[C@H]1O)c1ccccc1 [Amygdalin, amygdalin]
Chemotactic profile compared with peptide T [2]: chemotactic profile similar to that of peptide T
−log[A] (concentration of maximum chemotactic index) [1]: 10
Chemotactic index (maximum value) [1]: 0.63

CHO-Met-Leu-Phe-OH [FMLP, reference compound]
Concentration of maximum migration [1]: 10^−8 mol/L
Chemotactic index ([1]; at maximum migration, 10^−8 mol/L): 1.94±0.03

CCC(O[C@@H]1O[C@H](CO[C@@H]2O[C@H](CO)[C@@H](O)[C@H](O)[C@H]2O)[C@@H](O)[C@H](O)[C@H]1O)c1ccccc1 (mixture of isomers) [Compound (I-4), (1 RS)-1-phenylpropyl 6-O-(β-D-glucopyranosyl)-β-D-glucopyranoside]
−log[A] (concentration of maximum chemotactic index) [1]: 6
Chemotactic index (maximum value) [1]: 0.75

CC(C)(C)C(O[C@@H]1O[C@H](CO[C@@H]2O[C@H](CO)[C@@H](O)[C@H](O)[C@H]2O)[C@@H](O)[C@H](O)[C@H]1O)c1ccccc1 (mixture of isomers) [Compound (I-5), (1RS) 1-phenyl-2,2-dimethylpropyl-6-O-(β-D-glucopyranosyl)-β-D-glucopyranoside]
−log[A] (concentration of maximum chemotactic index) [1]: 9
Chemotactic index (maximum value) [1]: 0.84

O=C(O)[C@H](O[C@@H]1O[C@H](CO[C@@H]2O[C@H](CO)[C@@H](O)[C@H](O)[C@H]2O)[C@@H](O)[C@H](O)[C@H]1O)c1ccccc1 [Compound (I-6), (2R) (6-O-(β-D-glucopyranosyl)-β-D-glucopyranosyloxy)-phenylacetic acid]
−log[A] (concentration of maximum chemotactic index) [1]: 9
Chemotactic index (maximum value) [1]: 0.85

CC(O[C@@H]1O[C@H](CO[C@@H]2O[C@H](CO)[C@@H](O)[C@H](O)[C@H]2O)[C@@H](O)[C@H](O)[C@H]1O)c1ccccc1 (stereo partly drawn) [Compound (I-3), (1 RS)-1-phenylethyl-6-O-(β-D-glucopyranosyl)-β-D-glucopyranoside]
−log[A] (concentration of maximum chemotactic index) [1]: 8
Chemotactic index (maximum value) [1]: 0.77

C#CC(O[C@@H]1O[C@H](CO[C@@H]2O[C@H](CO)[C@@H](O)[C@H](O)[C@H]2O)[C@@H](O)[C@H](O)[C@H]1O)c1ccccc1 (stereo partly drawn) [Compound (I-8), (1 RS) 1-phenyl-2-propynyl-6-O-(β-D-Glucopyranosyl)-β-D-glucopyranoside]
−log[A] (concentration of maximum chemotactic index) [1]: 6
Chemotactic index (maximum value) [1]: 0.79

COc1ccc(CO[C@@H]2O[C@H](CO[C@@H]3O[C@H](CO)[C@@H](O)[C@H](O)[C@H]3O)[C@@H](O)[C@H](O)[C@H]2O)cc1 [Compound (I-1), 4-methoxybenzyl 6-O-(β-D-glucopyranosyl)-β-D-Glucopyranoside]
−log[A] (concentration of maximum chemotactic index) [1]: 10
Chemotactic index (maximum value) [1]: 0.87

OC[C@H]1O[C@@H](OC[C@H]2O[C@@H](OCc3ccccc3Cl)[C@H](O)[C@@H](O)[C@@H]2O)[C@H](O)[C@@H](O)[C@@H]1O [Compound (I-10), 2-chlorobenzyl 6-O-(β-D-gluconyranosyl)-β-D-Glucopyranoside]
−log[A] (concentration of maximum chemotactic index) [1]: 10
Chemotactic index (maximum value) [1]: 0.94
